Tests used:
[1] = test system: Paenibacillus polymyxa JB05-01-1; assay: Agar well diffusion method; type: cell-based; set-up: key: No inhibition at concentrations up of 0.1 μgml−1.; +: Diameter of the inhibition zone 10 ± 2 mm; ++: Diameter of the inhibition zone 16 ± 2 mm; +++: Diameter of the inhibition zone 28 ± 2 mm; conditions: medium LB; polymyxin B at 0.1 μg ml^−1
Method: (§1) The qualitative antimicrobial spectrum of P. polymyxa culture supernatant was determined using the agar well diffusion method (Wolf and Gibbons 1996). Briefly, a 25-ml volume of molten tryptic soy agar (0.75% agar w/v) was cooled to 47° C. and seeded with 1% (v/v) overnight TSB culture of an indicator strain. The seeded agar was then poured into a sterile Petri plate and allowed to solidify at room temperature. Wells (7 mm) were cut in the solidified agar using a sterile metal cork borer and filled with 80 μl of supernatant. The plates were left at 5° C. for 2 h to allow diffusion of the tested aliquot and then incubated aerobically for 18 h at 30° C. Absence or presence of inhibition zones as well as their diameters were recorded.

[2] = test system: Paenibacillus polymyxa ATCC 7070; assay: Agar well diffusion method; type: cell-based; set-up: key: No inhibition at concentrations up of 0.1 μgml−1.; +: Diameter of the inhibition zone 10 ± 2 mm; ++: Diameter of the inhibition zone 16 ± 2 mm; +++: Diameter of the inhibition zone 28 ± 2 mm; conditions: medium LB; polymyxin B at 0.1 μg ml^−1
Method: as §1

[3] = test system: Listeria ivanovii HPB 28; assay: Agar well diffusion method; type: cell-based; set-up: key: No inhibition at concentrations up of 0.1 μgml−1.; +: Diameter of the inhibition zone 10 ± 2 mm; ++: Diameter of the inhibition zone 16 ± 2 mm; +++: Diameter of the inhibition zone 28 ± 2 mm; conditions: medium TSB; polymyxin B at 0.1 μg ml^−1
Method: as §1

[4] = test system: Listeria innocua HPB 13; assay: Agar well diffusion method; type: cell-based; set-up: key: No inhibition at concentrations up of 0.1 μgml−1.; +: Diameter of the inhibition zone 10 ± 2 mm; ++: Diameter of the inhibition zone 16 ± 2 mm; +++: Diameter of the inhibition zone 28 ± 2 mm; conditions: medium TSB; polymyxin B at 0.1 μg ml^−1
Method: as §1

[5] = test system: Escherichia coli RR1; assay: Sensitivity to enzymes, detergents or urea, residual activity by agar diffusion test; type: physicochemical; conditions: polymyxin B 0.1 μg ml^−1
Method: The sensitivities of the antimicrobial agent to proteases (all from Sigma-Aldrich, Oakville, ON) or other agents was tested by treating P. polymyxa JB05-01-1 culture supernatant with 2 mg ml^−1 final concentration of proteinase K (Tritirachium album), α-chymotrypsin (bovine pancreas), lipase (Sigma-Aldrich, Oakville, ON), trypsin (porcine pancreas), urea (Sigma-Aldrich, St. Louis Mo.), sodium dodecyl sulfate (SDS) (Sigma-Aldrich, St. Louis Mo.) for 1 h at 37° C. (Motta et al. 2007). Thermal stability of the antimicrobial activity was determined by holding aliquots (1000 μl) of 20 h culture supernatant at temperatures ranging from 50° C. to 90° C. for 30 min or at 100° C. for 10 min. The effect of pH was determined by adjusting the pH of P. polymyxa JB05-01-1 culture supernatant from 2 to 9 using 5 M HCl or NaOH. The activity of each sample was compared with the activity of untreated P. polymyxa JB05-01 culture supernatant at pH 6.8.
The effect of several organic solvents was evaluated by stirring 20 h culture supernatant for 2 h with 10% (v/v) acetonitrile, hexane, propanol, ethanol, toluene, acetone, butanol or methanol (all solvents were obtained from Sigma-Aldrich, St. Louis Mo.). Residual antimicrobial activities were tested using the agar diffusion assay against E. coli RR1 as described herein, with controls for effects of residual solvent.

[6] = test system: Streptococcus bovis ATCC 33317; assay: Agar well diffusion method; type: cell-based; set-up: key: No inhibition at concentrations up of 0.1 μgml−1.; +: Diameter of the inhibition zone 10 ± 2 mm; ++: Diameter of the inhibition zone 16 ± 2 mm; +++: Diameter of the inhibition zone 28 ± 2 mm; conditions: medium LB; polymyxin B at 0.1 μg ml^−1
Method: as §1, with “Briefly, a 25-ml volume of molten tryptic soy agar (0.75% agar w/v) was cooled to 47° C. and seeded with 1% (v/v) overnight TSB culture of an indicator strain.” left out

[7] = test system: Enterococcus mundtii LRC 8369; assay: Agar well diffusion method; type: cell-based; set-up: key: No inhibition at concentrations up of 0.1 μgml−1.; +: Diameter of the inhibition zone 10 ± 2 mm; ++: Diameter of the inhibition zone 16 ± 2 mm; +++: Diameter of the inhibition zone 28 ± 2 mm; conditions: medium LB; polymyxin B at 0.1 μg ml^−1
Method: as §1, with “Briefly, a 25-ml volume of molten tryptic soy agar (0.75% agar w/v) was cooled to 47° C. and seeded with 1% (v/v) overnight TSB culture of an indicator strain.” left out

[8] = test system: Paenibacillus polymyxa ATCC 43865; assay: Agar well diffusion method; type: cell-based; set-up: key: No inhibition at concentrations up of 0.1 μgml−1.; +: Diameter of the inhibition zone 10 ± 2 mm; ++: Diameter of the inhibition zone 16 ± 2 mm; +++: Diameter of the inhibition zone 28 ± 2 mm; conditions: medium LB; polymyxin B at 0.1 μg ml^−1
Method: as §1, with “Briefly, a 25-ml volume of molten tryptic soy agar (0.75% agar w/v) was cooled to 47° C. and seeded with 1% (v/v) overnight TSB culture of an indicator strain.” left out

[9] = test system: Lactococcus lactis ATCC 7962; assay: Agar well diffusion method; type: cell-based; set-up: key: No inhibition at concentrations up of 0.1 μgml−1.; +: Diameter of the inhibition zone 10 ± 2 mm; ++: Diameter of the inhibition zone 16 ± 2 mm; +++: Diameter of the inhibition zone 28 ± 2 mm; conditions: medium MRS; polymyxin B at 0.1 μg ml^−1
Method: as §1, with “Briefly, a 25-ml volume of molten tryptic soy agar (0.75% agar w/v) was cooled to 47° C. and seeded with 1% (v/v) overnight TSB culture of an indicator strain.” left out

[10] = test system: Bacillus lecheniformis LRC 8422; assay: Agar well diffusion method; type: cell-based; set-up: key: No inhibition at concentrations up of 0.1 μgml−1.; +: Diameter of the inhibition zone 10 ± 2 mm; ++: Diameter of the inhibition zone 16 ± 2 mm; +++: Diameter of the inhibition zone 28 ± 2 mm; conditions: medium LB; polymyxin B at 0.1 μg ml^−1
Method: as §1, with “Briefly, a 25-ml volume of molten tryptic soy agar (0.75% agar w/v) was cooled to 47° C. and seeded with 1% (v/v) overnight TSB culture of an indicator strain.” left out

[11] = test system: Pediococcus pentosaceus ATCC 25745; assay: Agar well diffusion method; type: cell-based; set-up: key: No inhibition at concentrations up of 0.1 μgml−1.; +: Diameter of the inhibition zone 10 ± 2 mm; ++: Diameter of the inhibition zone 16 ± 2 mm; +++: Diameter of the inhibition zone 28 ± 2 mm; conditions: medium LB; polymyxin B at 0.1 μg ml^−1
Method: as §1, with “Briefly, a 25-ml volume of molten tryptic soy agar (0.75% agar w/v) was cooled to 47° C. and seeded with 1% (v/v) overnight TSB culture of an indicator strain.” left out

[12] = test system: Pediococcus acidilactici ATCC 25740; assay: Agar well diffusion method; type: cell-based; set-up: key: No inhibition at concentrations up of 0.1 μgml−1.; +: Diameter of the inhibition zone 10 ± 2 mm; ++: Diameter of the inhibition zone 16 ± 2 mm; +++: Diameter of the inhibition zone 28 ± 2 mm; conditions: medium MRS; polymyxin B at 0.1 μg ml^−1
Method: as §1, with “Briefly, a 25-ml volume of molten tryptic soy agar (0.75% agar w/v) was cooled to 47° C. and seeded with 1% (v/v) overnight TSB culture of an indicator strain.” left out

[13] = test system: Bacillus circulans LRC 9E2; assay: Agar well diffusion method; type: cell-based; set-up: key: No inhibition at concentrations up of 0.1 μgml−1.; +: Diameter of the inhibition zone 10 ± 2 mm; ++: Diameter of the inhibition zone 16 ± 2 mm; +++: Diameter of the inhibition zone 28 ± 2 mm; conditions: medium LB; polymyxin B at 0.1 μg ml^−1
Method: as §1, with “Briefly, a 25-ml volume of molten tryptic soy agar (0.75% agar w/v) was cooled to 47° C. and seeded with 1% (v/v) overnight TSB culture of an indicator strain.” left out

[14] = test system: Escherichia coli LRC RR1; assay: Agar well diffusion method; type: cell-based; conditions: medium TSB; polymyxin B at 0.1 μg ml^−1
Method: as §1

[15] = test system: Escherichia coli LRC TB1; assay: Agar well diffusion method; type: cell-based; conditions: medium TSB; polymyxin B at 0.1 μg ml^−1
Method: as §1

[16] = test system: Pseudomonas fluorescens LRC R73; assay: Agar well diffusion method; type: cell-based; conditions: medium TSB; polymyxin B at 0.1 μg ml^−1
Method: as §1

[17] = test system: Pantoea agglomerans LRC BC1; assay: Agar well diffusion method; type: cell-based; conditions: medium TSB; polymyxin B at 0.1 μg ml^−1
Method: as §1

[18] = test system: Escherichia coli LRC SA1650; assay: Agar well diffusion method; type: cell-based; conditions: medium TSB; polymyxin B at 0.1 μg ml^−1
Method: as §1

[19] = test system: E. coli RR1; assay: Effect of culture supernatant on exponentially growing E. coli RR1 (viable counts, OD600); type: cell-based, Escherichia coli; conditions: viability of E. coli RR1 cells; OD600nm constant
Method: To determine the effect of P. polymyxa JB05-01-1 culture supernatant, E. coli RR1 cells were cultivated in the presence of concentrated P. polymyxa culture supernatant containing JB05-01-1 at final total activity of 0, 32, and 96 AU/ml. The OD600nm of culture was determined every two hours using a multi-detection microplate reader (Bio-Teck instrument Inc, Winooski, Vt., USA). The corresponding final cell concentration expressed as CFU/ml was determined as described by Naghmouchi et al. (2008). The inhibitory activity (I.A.) of culture supernatant containing JB05-01-1 was calculated as a percentage, I.A.=100-100[OD600(x)/OD600(i)], where (x) is culture supernatant containing JB05-01-1 at the corresponded total activity and (i) is the control culture. Data was reported as means of duplicate analyses.

[20] = test system: Fibrobacter succinogenes ATCC 19169; assay: Agar well diffusion method; type: cell-based; conditions: medium L-10; polymyxin B at 0.1 μg ml^−1
Method: as §1, with “Briefly, a 25-ml volume of molten tryptic soy agar (0.75% agar w/v) was cooled to 47° C. and seeded with 1% (v/v) overnight TSB culture of an indicator strain.” left out

[21] = test system: Butyrivibrio fibrisolvens LRC OR85; assay: Agar well diffusion method; type: cell-based; conditions: medium L-10; polymyxin B at 0.1 μg ml^−1
Method: as §1, with “Briefly, a 25-ml volume of molten tryptic soy agar (0.75% agar w/v) was cooled to 47° C. and seeded with 1% (v/v) overnight TSB culture of an indicator strain.” left out

## Polymyxin B
[1]
  Inhibition (inhibition zone): −
[2]
  Inhibition (inhibition zone): −
[3]
  Inhibition (inhibition zone): −
[4]
  Inhibition (inhibition zone): −
[5]; Chymotrypsin 2 mg ml^−1, 1 h at 37° C.
  % of residual activity: 79.5%
[5]; Lipase 2 mg ml^−1, 1 h at 37° C.
  % of residual activity: 58.3%
[5]; Proteinase K 2 mg ml^−1, 1 h at 37° C.
  % of residual activity: 4.5%
[5]; SDS 2 mg ml^−1, 1 h at 37° C.
  % of residual activity: 70.1%
[5]; Trypsin 2 mg ml^−1, 1 h at 37° C.
  % of residual activity: 62.5%
[5]; Urea 2 mg ml^−1, 1 h at 37° C.
  % of residual activity: 62.5%
[6]
  Inhibition (inhibition zone): −
[7]
  Inhibition (inhibition zone): −
[8]
  Inhibition (inhibition zone): −
[9]
  Inhibition (inhibition zone): −
[10]
  Inhibition (inhibition zone): −
[11]
  Inhibition (inhibition zone): −
[12]
  Inhibition (inhibition zone): −
[13]
  Inhibition (inhibition zone): −
[14]
  Inhibition (inhibition zone): +++ (Diameter of the inhibition zone 28 ± 2 mm)
[15]
  Inhibition (inhibition zone): +++ (Diameter of the inhibition zone 28 ± 2 mm)
[16]
  Inhibition (inhibition zone): ++ (Diameter of the inhibition zone 16 ± 2 mm)
[17]
  Inhibition (inhibition zone): + (Diameter of the inhibition zone 10 ± 2 mm)
[18]
  Inhibition (inhibition zone): ++ (Diameter of the inhibition zone 16 ± 2 mm)
[19]
  Mode of action: bactericidal action
[20]
  Inhibition (inhibition zone): + (Diameter of the inhibition zone 10 ± 2 mm)
[21]
  Inhibition (inhibition zone): + (Diameter of the inhibition zone 10 ± 2 mm)
